Experimental data reported in ChEMBL document CHEMBL4420080, “Inhibitors of sox18 protein activity for treating angiogenesis- and/or lymphangiogenesis-related diseases” (2018).
The source made the active and inactive calls. The calls are words filed in the database; no cut-off is given here.

Tests used:
L-type calcium channel = L-type calcium channel (Rattus norvegicus, UniProt P22002+P27732+Q02485); test: Inhibition of rat L-type calcium channel at 10 uM relative to control; format: protein assay
[1] = molecular target: Sigma non-opioid intracellular receptor 1 (Homo sapiens) (UniProt Q99720); test: Inhibition of human sigma1 receptor at 10 uM relative to control
Rattus norvegicus = species: Rattus norvegicus; test: Inhibition of rat imidazoline I2 receptor at 10 uM relative to control
4T1.2 [2] = test: Antitumor activity against mouse 4T1.2 cells implanted in BALB/c mouse assessed as median disease latency time at 5 to 50 mg/kg/day for 10 days and measured up to 60 days after tumor inoculation; format: functional, organism-based
Danio rerio [3] = test: Induction of arterial and venous genes dys-regulation in zebrafish larvae harboring fli1 a:eGFP,-6.5kdrl:mCherry assessed as effect on […] gene expression at 1.5 uM dosed starting from 16 hpf and measured at 24 and 48 hpf by qRT-PCR analysis; format: functional, organism-based
[4] = molecular target: Thyroid Hormone Receptor (Rattus norvegicus) (UniProt P18113+P63059); test: Inhibition of rat thyroid hormone receptor at 10 uM relative to control; format: protein assay
4T1.2 [5] = test: Inhibition of tumor induced vascular response in mouse 4T1.2 cells implanted BALB/c mouse assessed as reduction in volume of the blood vessels in tumor region at 25 mg/kg/day for 10 days by ERG/EMCN-detection based immunofluorescent staining relative to control; format: functional; details: 4T1.2, 240 h
[6] = molecular target: Alpha-1A adrenergic receptor (Rattus norvegicus) (UniProt P43140); test: Inhibition of rat adrenergic alpha1A receptor at 10 uM relative to control
[7] = molecular target: Neuronal acetylcholine receptor (Homo sapiens) (UniProt P17787+P30926+P32297+P43681+Q15822+Q9UGM1+Q15825+P30532+P36544+Q9GZZ6+Q05901); test: Inhibition of human nAChR at 10 uM relative to control
Danio rerio [8] = test: Induction of arterial and venous genes dys-regulation in zebrafish larvae harboring fli1 a:eGFP,-6.5kdrl:mCherry assessed as effect on Ilk1 gene expression at 1.5 uM dosed starting from 16 hpf and measured at 24 and 48 hpf by qRT-PCR analysis; format: functional, organism-based

Thyroid Hormone Receptor (Rattus norvegicus), sequence (P18113 whole entry, looked up): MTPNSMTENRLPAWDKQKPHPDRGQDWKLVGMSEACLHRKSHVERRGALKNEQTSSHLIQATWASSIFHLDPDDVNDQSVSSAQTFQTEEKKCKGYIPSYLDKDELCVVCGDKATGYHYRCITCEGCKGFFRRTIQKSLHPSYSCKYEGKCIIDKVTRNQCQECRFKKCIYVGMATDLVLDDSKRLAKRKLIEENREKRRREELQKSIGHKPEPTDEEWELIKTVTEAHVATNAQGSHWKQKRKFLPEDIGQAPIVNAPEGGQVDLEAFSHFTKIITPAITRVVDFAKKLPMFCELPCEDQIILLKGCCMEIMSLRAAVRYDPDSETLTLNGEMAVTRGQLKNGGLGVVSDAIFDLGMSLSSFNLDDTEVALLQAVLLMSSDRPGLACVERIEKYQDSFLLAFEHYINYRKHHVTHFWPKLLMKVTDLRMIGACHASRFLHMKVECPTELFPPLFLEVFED
Thyroid Hormone Receptor (Rattus norvegicus), sequence (P63059 whole entry, looked up): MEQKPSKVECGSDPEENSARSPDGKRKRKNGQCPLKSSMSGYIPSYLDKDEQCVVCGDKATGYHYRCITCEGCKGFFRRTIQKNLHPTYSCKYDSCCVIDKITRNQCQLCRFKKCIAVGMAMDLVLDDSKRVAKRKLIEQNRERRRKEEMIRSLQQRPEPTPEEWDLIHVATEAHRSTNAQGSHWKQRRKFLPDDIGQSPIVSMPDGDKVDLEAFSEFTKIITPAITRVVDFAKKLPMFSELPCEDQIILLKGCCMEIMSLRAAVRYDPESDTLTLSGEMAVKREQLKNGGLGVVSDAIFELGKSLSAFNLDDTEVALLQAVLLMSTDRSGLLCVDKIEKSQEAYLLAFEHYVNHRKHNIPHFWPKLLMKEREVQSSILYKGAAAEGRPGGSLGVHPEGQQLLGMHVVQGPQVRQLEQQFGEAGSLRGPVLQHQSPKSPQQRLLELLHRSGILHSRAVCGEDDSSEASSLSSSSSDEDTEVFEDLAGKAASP
Sigma non-opioid intracellular receptor 1 (Homo sapiens), sequence (Q99720 whole entry): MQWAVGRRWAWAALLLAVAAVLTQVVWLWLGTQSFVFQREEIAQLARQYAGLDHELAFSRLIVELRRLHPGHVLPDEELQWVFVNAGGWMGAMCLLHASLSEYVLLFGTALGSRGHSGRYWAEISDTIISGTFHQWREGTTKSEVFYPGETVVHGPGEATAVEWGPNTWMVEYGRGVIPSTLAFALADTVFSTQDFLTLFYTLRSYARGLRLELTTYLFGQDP
Alpha-1A adrenergic receptor (Rattus norvegicus), sequence (P43140 whole entry): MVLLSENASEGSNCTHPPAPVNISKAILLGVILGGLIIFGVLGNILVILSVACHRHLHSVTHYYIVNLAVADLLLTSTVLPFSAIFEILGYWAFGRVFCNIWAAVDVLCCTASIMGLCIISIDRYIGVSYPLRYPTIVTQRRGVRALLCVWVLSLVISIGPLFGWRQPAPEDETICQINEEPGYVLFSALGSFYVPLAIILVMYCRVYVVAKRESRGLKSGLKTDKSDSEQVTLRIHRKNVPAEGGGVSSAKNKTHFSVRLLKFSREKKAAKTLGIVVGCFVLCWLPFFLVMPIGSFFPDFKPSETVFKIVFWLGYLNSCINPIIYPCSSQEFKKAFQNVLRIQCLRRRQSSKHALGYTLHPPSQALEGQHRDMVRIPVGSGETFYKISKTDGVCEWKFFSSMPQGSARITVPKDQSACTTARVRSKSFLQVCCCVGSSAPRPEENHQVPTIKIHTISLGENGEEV

inhibition at 10 µM (L-type calcium channel): -8%
inhibition [1]: -6%
inhibition (Rattus norvegicus): 11%
inhibition [4]: 36%
inhibition [6]: 0%
inhibition [7]: 3%
Compound: O=C(O)c1c(O)cccc1CCc1ccc2ccccc2c1
Activity (4T1.2 [2]): Dose-dependent effect
Activity (Danio rerio [3]): Active
inhibition in vivo at 25 mg/kg/day (4T1.2 [5]): 55%
Activity (Danio rerio [8]): Active
